Reference: patent publication US12514863B2, “Pharmaceutical combination and use thereof” (ASCENTAGE PHARMA (SUZHOU) CO., LTD., priority 2019, dated 2026)

Experiments:
[1] = test system: ST-02-0103 HER2+Gastric cancer PDX; assay: subcutaneous ST-02-0103 HER2+ gastric cancer PDX model; type: in vivo, mice
Description: (§4) A subcutaneous xenograft tumor model of human tumor immunodeficient mice was established by cell inoculation: tumor cells in logarithmic growth phase were collected, counted, resuspended in 1×PBS, and the cell suspension concentration was adjusted to 2.5-5×10^7/mL. The tumor cells were inoculated subcutaneously in the right side of immunodeficient mice with a 1 mL syringe (4 gauge needle), 5-10×10^6/0.2 mL/mouse.
(§5) Tumor volume (TV) is calculated as: TV=a×b^2/2, wherein a and b represent the length and width of the tumor to be measured, respectively.
(§6) The relative tumor volume (RTV) is calculated as: RTV=Vt/V1, wherein V1 is the tumor volume at the start of grouping and administration, and Vt is the tumor volume measured on the t day after administration.
(§7) Lapatinib: 100 mg/kg, PO, QD, for a total of 3 weeks,
(§8) The dosing regimen of each drug in the dosing regimen for the combination is the same as the dosing regimen for the single drug.

[2] = test system: ST-02-0077 HER2+Gastric cancer PDX; assay: subcutaneous ST-02-0077 HER2+ gastric cancer PDX model; type: in vivo, mice
Description: as §4, §5, §6, §7, §8

[3] = test system: MH-22A syngeneic liver cancer; assay: subcutaneous MH-22A syngeneic liver cancer model (Example 74); type: in vivo, mice
Description: (§1) Body weight of animals were monitored simultaneously.
(§2) Compound A: 50 mg/kg, PO, QD, for a total of 21 days,
Lenvatinib: 10 mg/kg, PO, QD, for a total of 21 days, […]

[4] = test system: MH-22A syngeneic tumors; assay: MH-22A syngeneic tumors, 5-day dosing (Example 76); type: in vivo, mice
Description: Compound A: 50 mg/kg, PO, QD, for a total of 5 days,
Lenvatinib: 10 mg/kg, PO, QD, for a total of 5 days,
Anti-PD-1: 5 mg/kg, I.P., BIW, for a total of 5 days, […]

[5] = test system: MC38 syngeneic colon cancer; assay: subcutaneous MC38 syngeneic colon cancer model (Example 82); type: in vivo, mice
Description: as §1, §2
Lenvatinib: 10 mg/kg, PO, QD, for a total of 21 days,
Anti-PD-1: 5 mg/kg, I.P., BIW, for a total of 21 days, […]

[6] = test system: ER+ MCF-7 breast cancer xenograft; assay: s.c. ER+ MCF-7 breast cancer xenograft (Examples 7, 11, 27, 28, 44); type: in vivo, mice
[7] = test system: ER+ MCF-7 breast cancer xenograft; assay: ER+ MCF-7 xenograft, palbociclib plus fulvestrant (Example 8); type: in vivo, mice
Description: (§3) Tumor volume (TV) is calculated as:

[8] = test system: ER+ BR5496 breast cancer PDX; assay: s.c. ER+ BR5496 breast PDX (tamoxifen-resistant); set-up: species or system mice; conditions: mouse, in vivo
Description: as §3

[9] = test system: ER+ tamoxifen resistant MCF-7 breast cancer xenograft; assay: ER+ tamoxifen resistant MCF-7 breast cancer xenograft; set-up: species or system mice; conditions: mouse, in vivo
Description: as §3

[10] = test system: DOHH2 xenograft; assay: subcutaneous FL DOHH2 xenograft; type: in vivo, mice
Description: as §3

[11] = test system: primary multiple myeloma cells (CL-MM-001, CL-MM-003); assay: cell viability CTG assay, primary multiple myeloma cells; type: cell-based; conditions: MM sample CL-MM-003, 48 hrs; unit assumed
Description: IC50 value was calculated using GraphPad Prism. […] CI<0.9 indicate a synergistic combination effect.
Methods used include cell viability CTG assay.

[12] = Cpd A 100 mg/kg, Lapatinib 100 mg/kg
[13] = Compound A 50 mg/kg, Lenvatinib 10 mg/kg, Anti-PD-1 5 mg/kg

CS(=O)(=O)CCNCc1ccc(-c2ccc3ncnc(Nc4ccc(OCc5cccc(F)c5)c(Cl)c4)c3c2)o1 [Lapatinib, reference compound]
RTV@D 21 [1, 12]: 3.91 ± 1.00
T/C(%) @ D 21 ([1]; doses as E195): 64.07%
RTV@D 21 [2, 12]: 9.29 ± 0.53
T/C(%) @ D 21 ([2]; doses as E199): 80.03%

COc1cc2nccc(Oc3ccc(NC(=O)NC4CC4)c(Cl)c3)c2cc1C(N)=O [Lenvatinib, reference compound]
RTV @ D 15 ([3]; Compound A 50 mg/kg, Lenvatinib 10 mg/kg): 12.94 ± 2.02
T/C (%) @ D 15 ([3]; doses as E217): 39.29%
RTV @ D 5 [4, 13]: 3.19 ± 0.18
T/C (%) @ D 5 ([4]; doses as E225): 65.07%
RTV@ D 22 [5, 13]: 9.29 ± 1.60
T/C(%)@D 22 ([5]; doses as E233): 24.59%

CC(=O)c1c(C)c2cnc(Nc3ccc(N4CCNCC4)cn3)nc2n(C2CCCC2)c1=O [Palbociclib, reference compound]
RTV@D 36 ([6]; doses as E21): 2.9 ± 0.8
T/C(%)@D 22 ([6]; doses as E21): 39.3%
T/C(%)@D 36 ([6]; doses as E21): 44.2%
RTV@D 36 ([7]; Compound A 100 mg/kg, Palbociclib 20 mg/kg, Fulvestrant 20 mg/kg): 3.4 ± 0.7
T/C(%)@D 36 ([7]; doses as E30): 57.1%
RTV @ D 50 [8]: 3.43 ± 0.68
T/C (%) @ D 50 [8]: 78.01%
RTV @ D 25 [9]: 4.86 ± 0.71
T/C (%) @ D 25 [9]: 83.86%

CC/C(=C(\c1ccccc1)c1ccc(OCCN(C)C)cc1)c1ccccc1 [Tamoxifen]
RTV@ D 22 ([6]; Compound A 100 mg/kg, Palbociclib 50 mg/kg, Tamoxifen 3 or 1 mg/kg, Compound B 50 mg/kg): 0.7 ± 0.3
ORR ([6]; doses as E21): 66.7%
RTV@D 36 ([6]; doses as E21): 1.4 ± 0.8
T/C(%)@D 22 ([6]; doses as E21): 20.4%
T/C(%)@D 36 ([6]; doses as E21): 22.0%

CC[C@H](Nc1ncnc2[nH]cnc12)c1nc2cccc(F)c2c(=O)n1-c1ccccc1 [idelalisib, reference compound]
RTV@D 21 ([10]; Compound A 50 mg/kg, qd, po, idelalisib 15 mg/kg, bid): 10.7 ± 0.95
T/C(%) @211 ([10]; doses as E51): 75.8%

Nc1cccc2c1CN(C1CCC(=O)NC1=O)C2=O (stereo not shown) [lenalidomide]
quantified cell viability [11]: 72.4%

Nc1cccc2c1C(=O)N(C1CCC(=O)NC1=O)C2=O (stereo not shown) [pomalodomide]
quantified cell viability [11]: 63.4%
